# Measurements from US20170260178A1 (SPERO GYRASE, INC., priority 2012, published 2017).
# How the values were obtained:
# S. aureus (ATCC 29213) = experiment: Bacterial assay: MIC against S. aureus; type: cell-based, Staphylococcus aureus; settings: Staphylococcus aureus, ATCC29213, read-out: minimal inhibitory concentration (MIC)
# [1] = tested on: H. influenzae (ATCC 49247); experiment: Bacterial assay: MIC against H. influenzae; type: cell-based; settings: Haemophilus influenzae, ATCC49247; H. influenzae ATCC 49247; read-out: minimal inhibitory concentration (MIC)
# S. pyogenes (ATCC 51339) = experiment: Bacterial assay: MIC against S. pyogenes; type: cell-based, Streptococcus pyogenes; settings: Streptococcus pyogenes, ATCC51339, read-out: minimal inhibitory concentration (MIC)
Structure (SMILES),MIC (S. aureus (ATCC 29213)),MIC [1],MIC (S. pyogenes (ATCC 51339))
"CCNC(=O)Nc1nc2cc(-c3cnc([C@H](C)O)nc3)cc(-c3ccccn3)c2s1 [Compound 23, 1-ethyl-3-[5-[2-[(1S)-1-hydroxyethyl]pyrimidin-5-yl]-7-(2-pyridyl)-1,3-benzothiazol-2-yl]urea]",≤ 1 µg/mL,≤ 2 µg/mL,≤ 1 µg/mL
"CCNC(=O)Nc1nc2cc(-c3cnc(C(C)(O)CO)nc3)cc(-c3ccccn3)c2s1 (stereo not shown) [Compound 157, 1-[5-[2-[1,2-dihydroxy-1-methyl-ethyl]pyrimidin-5-yl]-7-(2-pyridyl)-1,3-benzothiazol-2-yl]-3-ethyl-urea]",≤ 1 µg/mL,≤ 2 µg/mL,≤ 1 µg/mL
"CCNC(=O)Nc1nc2cc(-c3ccc(C(C)(C)O)nc3)cc(-c3ccccn3)c2s1 [Compound 27, 1-ethyl-3-[5-[6-(1-hydroxy-1-methyl-ethyl)-3-pyridyl]-7-(2-pyridyl)-1,3-benzothiazol-2-yl]urea]",≤ 1 µg/mL,≤ 2 µg/mL,≤ 1 µg/mL
"CCNC(=O)Nc1nc2cc(-c3cnc(C4(O)CCOCC4)nc3)cc(-c3ccccn3)c2s1 [Compound 111, 1-ethyl-3-[5-[2-(4-hydroxytetrahydropyran-4-yl)pyrimidin-5-yl]-7-(2-pyridyl)-1,3-benzothiazol-2-yl]urea]",≤ 1 µg/mL,≤ 2 µg/mL,≤ 1 µg/mL
"CCNC(=O)Nc1nc2cc(-c3ccc(C(O)C(F)(F)F)nc3)cc(-c3cc(OCCN4CCOCC4)ccn3)c2s1 (stereo not shown) [Compound 116, 1-ethyl-3-[7-[4-(2-morpholinoethoxy)-2-pyridyl]-5-[6-(2,2,2-trifluoro-1-hydroxy-ethyl)-3-pyridyl]-1,3-benzothiazol-2-yl]urea]",≤ 1 µg/mL,≤ 2 µg/mL,≤ 1 µg/mL
"CCNC(=O)Nc1nc2cc(-c3cnc([C@@H](C)O)nc3)cc(-c3cc(CN4CCOCC4)ccn3)c2s1 [Compound 121, 1-ethyl-3-[5-[2-[(1R)-1-hydroxyethyl]pyrimidin-5-yl]-7-[4-(morpholinomethyl)-2-pyridyl]-1,3-benzothiazol-2-yl]urea]",≤ 1 µg/mL,≤ 2 µg/mL,≤ 1 µg/mL
"CCNC(=O)Nc1nc2cc(-c3cnc(C(C)O)nc3)cc(-c3cc(CN4CC[C@H](F)C4)ccn3)c2s1 (stereo partly drawn) [Compound 64, 1-ethyl-3-[7-[4-[[(3S)-3-fluoropyrrolidin-1-yl]methyl]-2-pyridyl]-5-[2-(1-hydroxyethyl)pyrimidin-5-yl]-1,3-benzothiazol-2-yl]urea]",≤ 1 µg/mL,≤ 2 µg/mL,≤ 1 µg/mL
"CCNC(=O)Nc1nc2cc(-c3cnc(C4(O)CCCC4)nc3)cc(-c3ccccn3)c2s1 [Compound 119, 1-ethyl-3-[5-[2-(1-hydroxycyclopentyl)pyrimidin-5-yl]-7-(2-pyridyl)-1,3-benzothiazol-2-yl]urea]",≤ 1 µg/mL,≤ 2 µg/mL,≤ 1 µg/mL
"CCNC(=O)Nc1nc2cc(-c3cnc(C(C)(C)O)nc3)cc(-c3cc(OCCN4CCOCC4)ccn3)c2s1 [Compound 32, 1-ethyl-3-[5-[2-(1-hydroxy-1-methyl-ethyl)pyrimidin-5-yl]-7-[4-(2-morpholinoethoxy)-2-pyridyl]-1,3-benzothiazol-2-yl]urea]",≤ 1 µg/mL,≤ 2 µg/mL,≤ 1 µg/mL
"CCNC(=O)Nc1nc2cc(-c3ccc(C(O)C(F)(F)F)nc3)cc(-c3cc(CN4CC(OC)C4)ccn3)c2s1 (stereo not shown) [Compound 155, 1-ethyl-3-[7-[4-[(3-methoxyazetidin-1-yl)methyl]-2-pyridyl]-5-[6-[2,2,2-trifluoro-1-hydroxy-ethyl]-3-pyridyl]-1,3-benzothiazol-2-yl]urea]",≤ 1 µg/mL,≤ 2 µg/mL,≤ 1 µg/mL
"CCNC(=O)Nc1nc2cc(-c3cnc([C@@H](O)[C@H](O)C(F)F)nc3)cc(-c3ccccn3)c2s1 (relative stereo) [Compound 130, 1-[5-[2-[(1R*,2S*)-3,3-difluoro-1,2-dihydroxy-propyl]pyrimidin-5-yl]-7-(2-pyridyl)-1,3-benzothiazol-2-yl]-3-ethyl-urea]",≤ 1 µg/mL,≤ 2 µg/mL,≤ 1 µg/mL
"CCNC(=O)Nc1nc2cc(-c3cnc(C(C)O)nc3)cc(-c3cc(CN4C[C@@H](C)O[C@@H](C)C4)ccn3)c2s1 (stereo partly drawn) [Compound 69, 1-[7-[4-[[(2R,6S)-2,6-dimethylmorpholin-4-yl]methyl]-2-pyridyl]-5-[2-(1-hydroxyethyl)pyrimidin-5-yl]-1,3-benzothiazol-2-yl]-3-ethyl-urea]",≤ 1 µg/mL,≤ 2 µg/mL,≤ 1 µg/mL
"CCNC(=O)Nc1nc2cc(-c3cnc(C(C)O)nc3)cc(-c3cc(OCC4CCCO4)ccn3)c2s1 (stereo not shown) [Compound 104, 1-ethyl-3-[5-[2-(1-hydroxyethyl)pyrimidin-5-yl]-7-[4-(tetrahydrofuran-2-ylmethoxy)-2-pyridyl]-1,3-benzothiazol-2-yl]urea]",≤ 1 µg/mL,≤ 2 µg/mL,≤ 1 µg/mL
"CCNC(=O)Nc1nc2cc(-c3cnc(N4CCC(C)(C(=O)O)CC4)nc3)cc(-c3cc(C(C)O)ccn3)c2s1 (stereo not shown) [Compound 88, 1-[5-[2-(ethylcarbamoylamino)-7-[4-(1-hydroxyethyl)-2-pyridyl]-1,3-benzothiazol-5-yl]pyrimidin-2-yl]-4-methyl-piperidine-4-carboxylic acid]",≤ 1 µg/mL,≤ 2 µg/mL,≤ 1 µg/mL
"CCNC(=O)Nc1nc2cc(-c3cnc([C@H](C)O)nc3)cc(-c3cc(CN4CCOCC4)ccn3)c2s1 [Compound 122, 1-ethyl-3-[5-[2-[(1S)-1-hydroxyethyl]pyrimidin-5-yl]-7-[4-(morpholinomethyl)-2-pyridyl]-1,3-benzothiazol-2-yl]urea]",≤ 1 µg/mL,≤ 2 µg/mL,≤ 1 µg/mL
"CCNC(=O)Nc1nc2cc(-c3cnc(C(C)(C)O)nc3)cc(-c3cc(CN4CC(O)C4)ccn3)c2s1 [Compound 30, 1-ethyl-3-[7-[4-[(3-hydroxyazetidin-1-yl)methyl]-2-pyridyl]-5-[2-(1-hydroxy-1-methyl-ethyl)pyrimidin-5-yl]-1,3-benzothiazol-2-yl]urea]",≤ 1 µg/mL,≤ 2 µg/mL,≤ 1 µg/mL
"CCNC(=O)Nc1nc2cc(-c3cnc(C(C)(C)O)nc3)cc(-c3cc(CN4CC[C@H](F)C4)ccn3)c2s1 [Compound 35, 1-ethyl-3-[7-[4-[[(3S)-3-fluoropyrrolidin-1-yl]methyl]-2-pyridyl]-5-[2-(1-hydroxy-1-methyl-ethyl)pyrimidin-5-yl]-1,3-benzothiazol-2-yl]urea]",≤ 1 µg/mL,≤ 2 µg/mL,≤ 1 µg/mL
"CCNC(=O)Nc1nc2cc(-c3cnc(C(C)O)nc3)cc(-c3nccc(OC)c3F)c2s1 (stereo not shown) [Compound 178, 1-ethyl-3-[7-(3-fluoro-4-methoxy-2-pyridyl)-5-[2-[1-hydroxyethyl]pyrimidin-5-yl]-1,3-benzothiazol-2-yl]urea]",≤ 1 µg/mL,≤ 2 µg/mL,≤ 1 µg/mL
"CCNC(=O)Nc1nc2cc(-c3cnc([C@H](C)OC(=O)[C@H](N)C(C)C)nc3)cc(-c3ccccn3)c2s1 [Compound 63, [(1S)-1-[5-[2-(ethylcarbamoylamino)-7-(2-pyridyl)-1,3-benzothiazol-5-yl]pyrimidin-2-yl]ethyl] (2R)-2-amino-3-methyl-butanoate]",≤ 1 µg/mL,≤ 2 µg/mL,≤ 1 µg/mL
"CCCC(O)c1ncc(-c2cc(-c3ccccn3)c3sc(NC(=O)NCC)nc3c2)cn1 (stereo not shown) [Compound 61, 1-ethyl-3-[5-[2-(1-hydroxybutyl)pyrimidin-5-yl]-7-(2-pyridyl)-1,3-benzothiazol-2-yl]urea]",≤ 1 µg/mL,≤ 2 µg/mL,≤ 1 µg/mL
"CCNC(=O)Nc1nc2cc(-c3ccc(C(C)O)nc3)cc(-c3ccccn3)c2s1 (stereo not shown) [Compound 95, 1-ethyl-3-[5-[6-(1-hydroxyethyl)-3-pyridyl]-7-(2-pyridyl)-1,3-benzothiazol-2-yl]urea]",≤ 1 µg/mL,≤ 2 µg/mL,≤ 1 µg/mL
"CCNC(=O)Nc1nc2cc(-c3cnc(C(C)(C)O)nc3)cc(-c3ncccn3)c2s1 [Compound 10, 1-ethyl-3-[5-[2-(1-hydroxy-1-methyl-ethyl)pyrimidin-5-yl]-7-pyrimidin-2-yl-1,3-benzothiazol-2-yl]urea]",≤ 1 µg/mL,≤ 2 µg/mL,≤ 1 µg/mL
"CCNC(=O)Nc1nc2cc(-c3cnc(C4(O)COC4)nc3)cc(-c3cc(CN4CCOCC4)ccn3)c2s1 [Compound 154, 1-ethyl-3-[5-[2-(3-hydroxyoxetan-3-yl)pyrimidin-5-yl]-7-[4-(morpholinomethyl)-2-pyridyl]-1,3-benzothiazol-2-yl]urea]",≤ 1 µg/mL,≤ 2 µg/mL,≤ 1 µg/mL
"CCNC(=O)Nc1nc2cc(-c3cnc(C(C)(C)O)nc3)cc(-c3cc(CN4CC(OCC)C4)ccn3)c2s1 [Compound 175, 1-[7-[4-[(3-ethoxyazetidin-1-yl)methyl]-2-pyridyl]-5-[2-(1-hydroxy-1-methyl-ethyl)pyrimidin-5-yl]-1,3-benzothiazol-2-yl]-3-ethyl-urea]",≤ 1 µg/mL,≤ 2 µg/mL,≤ 1 µg/mL
"CCNC(=O)Nc1nc2cc(-c3cnc(C(C)(C)O)nc3)cc(-c3cnccn3)c2s1 [Compound 39, 1-ethyl-3-[5-[2-(1-hydroxy-1-methyl-ethyl)pyrimidin-5-yl]-7-pyrazin-2-yl-1,3-benzothiazol-2-yl]urea]",≤ 1 µg/mL,≤ 2 µg/mL,≤ 1 µg/mL
"CCNC(=O)Nc1nc2cc(-c3cnc([C@@H](C)O)nc3)cc(-c3ccc(OC)cn3)c2s1 [Compound 202, 1-ethyl-3-[5-[2-[(1R)-1-hydroxyethyl]pyrimidin-5-yl]-7-(5-methoxy-2-pyridyl)-1,3-benzothiazol-2-yl]urea]",≤ 1 µg/mL,≤ 2 µg/mL,
"[2H]C1([2H])OC([2H])([2H])C([2H])([2H])N(Cc2ccnc(-c3cc(-c4cnc(C(C)(C)O)nc4)cc4nc(NC(=O)NCC)sc34)c2)C1([2H])[2H] [Compound 198, 1-ethyl-3-[5-[2-(1-hydroxy-1-methyl-ethyl)pyrimidin-5-yl]-7-[4-[(2,2,3,3,5,5,6,6-octadeuteriomorpholin-4-yl)methyl]-2-pyridyl]-1,3-benzothiazol-2-yl]urea]",≤ 1 µg/mL,≤ 2 µg/mL,
